# Assays:
# IGROV1 cells [1] = assay: Immunofluorescence of CtIP recruitment to micro-irradiation induced DSB sites; assay type: cell-based, human; details: 1 µM
# Experimental: (§1) Supplementary Figure S1. Identification of novel And-1 inhibitors. […]
# siAnd-1. S: S phase. (D) Immunofluorescence assay to detect CtIP and γH2AX foci formation after CH3 […]
# IGROV1 cells treated with DMSO, 1 […]
# to immunostain γH2AX and CtIP. For each experiment, 50 cells were counted and the percentage of cells with co-localization of γH2AX and CtIP foci was determined. Data represent means ± SEM from three independent experiments. (E) HR reporter assay to detect HR repair efficiency in cells treated with CH3. […]
# IGROV1 CR cells = assay: SRB cell viability assay, combination with cisplatin; assay type: cell-based, human; details: by combination index (CI < 1 synergism)
# Experimental: The assay was as previously described.[45]
# Synergy of each combination was indicated as combination index (CI) values. […] (C) Tumors of IGROV1 CR xenograft treated with control (vehicle), cisplatin (8 mg/kg/day intraperitoneally), CH3 (20 mg/kg/3days intraperitoneally), or a combination of CH3 and cisplatin for 3 weeks. Ruler scale is in centimeters. (D) Growth curves of IGROV1 CR xenografts. […] (E) IHC staining against And‐1 antibodies of tumor samples from four treated groups of mice. Scale bar: 50 μm. […] Ruler scale is in centimeters. (G) Growth curves of IGROV1 CR xenografts. […] (H) IHC staining against And‐1 antibodies of tumor samples from four treated groups of mice. Scale bar: 50 μm.
# IGROV1 cells [2] = assay: Flow cytometry cell cycle analysis (propidium iodide); assay type: cell-based, human; details: 1 µM, FACS
# Description: And‐1 is involved in DNA replication in the S‐phase and is required for the S‐phase progression.[15] We assumed that And‐1 inhibitors should be able to inhibit DNA replication by targeting And‐1.
# as §1
# Molecular weight of each compound was indicated. (C) Flow cytometry
# And‐1 = target: T1, And‐1 (Homo sapiens, UniProt O75717); assay: Cellular thermal shift assay; assay type: binding; details: IGROV1 cells, higher temperature, compared to DMSO
# T1 construct: expressed in transfected cells
# T1 sequence (O75717 1-1129): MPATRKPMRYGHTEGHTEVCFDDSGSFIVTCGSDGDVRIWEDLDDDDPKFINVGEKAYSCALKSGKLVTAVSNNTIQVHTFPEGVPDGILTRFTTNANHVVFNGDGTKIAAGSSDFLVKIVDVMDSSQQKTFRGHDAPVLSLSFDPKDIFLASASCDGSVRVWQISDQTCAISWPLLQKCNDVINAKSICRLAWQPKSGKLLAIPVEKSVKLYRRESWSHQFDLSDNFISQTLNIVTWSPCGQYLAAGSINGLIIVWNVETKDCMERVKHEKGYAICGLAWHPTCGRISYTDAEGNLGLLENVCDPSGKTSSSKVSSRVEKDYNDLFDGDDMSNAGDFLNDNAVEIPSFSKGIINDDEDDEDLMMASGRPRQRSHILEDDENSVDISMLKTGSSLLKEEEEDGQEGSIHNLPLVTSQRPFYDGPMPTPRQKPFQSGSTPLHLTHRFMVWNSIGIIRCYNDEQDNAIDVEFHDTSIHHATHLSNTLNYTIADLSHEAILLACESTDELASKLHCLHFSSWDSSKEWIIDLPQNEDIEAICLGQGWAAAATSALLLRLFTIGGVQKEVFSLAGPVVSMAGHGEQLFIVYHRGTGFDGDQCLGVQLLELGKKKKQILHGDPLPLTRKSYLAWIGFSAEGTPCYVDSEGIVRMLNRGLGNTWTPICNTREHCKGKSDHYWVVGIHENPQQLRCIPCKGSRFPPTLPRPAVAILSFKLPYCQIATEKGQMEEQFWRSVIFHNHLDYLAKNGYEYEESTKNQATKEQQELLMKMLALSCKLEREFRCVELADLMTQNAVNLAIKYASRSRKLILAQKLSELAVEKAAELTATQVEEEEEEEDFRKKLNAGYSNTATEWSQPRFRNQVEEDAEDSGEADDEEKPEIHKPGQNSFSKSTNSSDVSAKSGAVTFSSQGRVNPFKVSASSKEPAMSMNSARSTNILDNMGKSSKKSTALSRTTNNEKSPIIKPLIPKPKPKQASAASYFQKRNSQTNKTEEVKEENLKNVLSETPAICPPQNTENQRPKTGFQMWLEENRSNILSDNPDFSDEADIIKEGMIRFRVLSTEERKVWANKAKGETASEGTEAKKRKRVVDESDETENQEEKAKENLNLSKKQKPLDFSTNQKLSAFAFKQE
# IGROV1 CR xenografts = assay: Cisplatin resistant IGROV1 CR xenograft in nude mice; assay type: in vivo, mouse
# IGROV1 xenografts = assay: IGROV1 xenograft in nude mice; assay type: in vivo, mouse
# Experimental: (§2) (A) Tumours of IGROV1 xenograft treated with vehicle or CH3 (20 or 40 mg/kg/3days intraperitoneally) for 3 weeks. Ruler scale is in centimeters. (B) Growth curves of IGROV1 xenografts. Data are represented as means ± SEM. ****p < 0.0001. (C) IHC staining against acidic nucleoplasmic DNA‐binding protein 1 (And‐1) and cleaved‐caspase3 antibodies of tumor samples from 3 groups of mice. Scale bar: 50 μm. Lower panel, quantification of And‐1and cleaved‐caspase 3 IHC score in tumors treated in A. ****p < 0.0001. (D) Tumors of MCF7 xenograft treated with vehicle or CH3 (20 or 40 mg/kg/3days intraperitoneally) for 3 weeks. Ruler scale is in centimeters. (E) Growth curves of MCF7 xenografts. Data are represented as means ± SEM. ****p < 0.0001. (F) IHC staining against And‐1 and cleaved‐caspase3 antibodies of tumor samples from three treated groups of mice. Scale bar: 50 μm. Lower panel, quantification of And‐1and cleaved‐caspase 3 IHC score in tumors treated in (D). *p < 0.1; **p < 0.01; ***p < 0.001; ****p < 0.0001
# (§3) into subsequent experiment groups.
# (§4) represent the longest and shortest diameters, respectively. During the drug treatment, the tumor volume
# (§5) and body weight were measured. […]
# IGROV1 cells [3] = assay: HR reporter assay; assay type: cell-based, human; details: CH3 2 µM or 4 µM
# Experimental: as §1
# (E) HR reporter assay to detect HR repair efficiency in cells treated with CH3.
# IGROV1 cells treated with DMSO, 2 µM or 4 µM of CH3 were subjected to HR reporter assay and the
# percentage of GFP-positive cells was determined by flow cytometry 48 h after I-SceI plasmid transfection.
# HR efficiency were normalized to those obtained from cells treated with DMSO. Data represent means ±
# SEM from three independent experiments. (F) HR reporter assay to detect HR repair efficiency in cells
# treated with BZA using approaches as in E.
# MCF7 xenografts = assay: MCF7 xenograft in nude mice; assay type: in vivo, mouse
# Experimental: as §2, §3, §4, §5
smiles,measurement,setting,value
"OB1OCc2cc(/C=C/c3ccc(Cl)c(Cl)c3)ccc21 [CH3, (E)‐5‐(3,4‐dichlorostyryl)benzo[c][1,2]oxaborol‐1(3H)‐ol]",recruitment of CtIP to DSB sites induced by micro‐irradiation,IGROV1 cells [1],significantly decreased
same,synergy with cisplatin to inhibit cell proliferation,IGROV1 CR cells,significant synergy with cisplatin
same,percentage of cells in the S‐phase,IGROV1 cells [2],reduced the percentage of cells in the S‐phase
same,thermal stability of And‐1 protein,And‐1,stabilized
same,expression of And‐1 in tumours (IHC),IGROV1 CR xenografts,suppressed expression of And‐1 in tumours
same,"resistant tumour growth, combination with cisplatin vs cisplatin alone","IGROV1 CR xenografts; cisplatin 8 mg/kg + CH3 20 mg/kg or BZA 2 mg/kg, intraperitoneal, 3 weeks",significantly reduced resistant tumour growth
same,And‐1 expression in tumor tissues (IHC),IGROV1 xenografts; IGROV1 xenograft tumors,inhibited And‐1 expression
same,cleaved caspase‐3 expression in tumor tissues (IHC),IGROV1 xenografts; IGROV1 xenograft tumors,induced the expression of cleaved caspase‐3
same,tumor growth,"IGROV1 xenografts; ovarian IGROV1 xenografts, nude mice, 20 mg/kg or 40 mg/kg intraperitoneal, 3 weeks",significantly reduced tumor growth
same,HR efficiency,IGROV1 cells [3],profoundly reduced HR efficiency
same,And‐1 expression in tumor tissues (IHC),MCF7 xenografts; MCF7 xenograft tumors,inhibited And‐1 expression
same,cleaved caspase‐3 expression in tumor tissues (IHC),MCF7 xenografts; MCF7 xenograft tumors,induced the expression of cleaved caspase‐3
same,tumor growth,"MCF7 xenografts; breast MCF7 xenografts, nude mice, 20 mg/kg or 40 mg/kg intraperitoneal, 3 weeks",significantly reduced tumor growth

# Source: publication PMC8684776, “Discovery and characterization of potent And‐1 inhibitors for cancer treatment” (Clinical and Translational Medicine, 2021)
